# Assay results published in patent US12052991B2, “Substituted pyridinyloxybenzenes and salts thereof and use thereof as herbicidal agents” (Bayer Aktiengesellschaft, priority 2018, dated 2024).
# Columns and labels:
# Format in all cases: in vivo
# viola tricolor (VIOTR) = experiment: Herbicidal pre-emergence action, test D, single sowings (Table D7); settings: dosage 80 g/ha, scored after about 3 weeks
# Source text: (§1) Seeds of monocotyledonous and dicotyledonous weed plants were laid out in plastic or organic plant pots (single sowings with one species of mono- or dicotyledonous weed plant per pot) and covered with soil. The compounds of the invention, formulated in the form of wettable powders (WP) or as emulsion concentrates (EC), were then applied to the surface of the covering soil as aqueous suspension or emulsion with addition of 0.5% additive at a water application rate equivalent to 600 l/ha (converted). After the treatment, the pots were placed in a greenhouse and kept under good growth conditions for the test plants. After about 3 weeks, the effect of the preparations was scored visually in comparison with untreated controls as percentages. For example, 100% activity=the plants have died, 0% activity=like control plants. Tables D1 to D8 below show the effects of selected compounds of the general formula (I) according to Table 1 on various harmful plants and an application rate corresponding to 80 g/ha, which were obtained by the experimental procedure mentioned above.
# [1] = tested on: soybean (GLXMA, var. Sultana), wheat (TRZAS, var. Triso) and corn (ZEAMX, var. Aventura); experiment: Pre-emergence crop plant compatibility, summary of Table E1; settings: applied pre-emergence to soybean, wheat and corn at 80 g of active ingredient per hectare; summary in words
# Source text: as §1, with “crop” for “weed”, “placed” for “laid out”, “pots” for “pots (single sowings with one species of mono- or dicotyledonous weed plant per pot)”, “plants.” for “plants. Tables D1 to D8 below show the effects of selected compounds of the general formula (I) according to Table 1 on various harmful plants and an application rate corresponding to 80 g/ha, which were obtained by the experimental procedure mentioned above.”
# [2] = tested on: Matricaria inodora (MATIN); experiment: Herbicidal pre-emergence action, test D, single sowings (Table D6); settings: dosage 80 g/ha, scored after about 3 weeks
# Source text: as §1
# [3] = tested on: corn (ZEAMX, var. Aventura); experiment: Pre-emergence crop plant compatibility (Table E1); settings: dosage 80 g/ha, scored after about 3 weeks, 0% = like control plants
# Source text: as §1, with “crop” for “weed”, “placed” for “laid out”, “pots” for “pots (single sowings with one species of mono- or dicotyledonous weed plant per pot)”, “plants.” for “plants. Tables D1 to D8 below show the effects of selected compounds of the general formula (I) according to Table 1 on various harmful plants and an application rate corresponding to 80 g/ha, which were obtained by the experimental procedure mentioned above.”
# [4] = tested on: wheat (TRZAS, var. Triso); experiment: Pre-emergence crop plant compatibility (Table E1); settings: dosage 80 g/ha, scored after about 3 weeks, 0% = like control plants
# Source text: as §1, with “crop” for “weed”, “placed” for “laid out”, “pots” for “pots (single sowings with one species of mono- or dicotyledonous weed plant per pot)”, “plants.” for “plants. Tables D1 to D8 below show the effects of selected compounds of the general formula (I) according to Table 1 on various harmful plants and an application rate corresponding to 80 g/ha, which were obtained by the experimental procedure mentioned above.”
# [5] = tested on: soybean (GLXMA, var. Sultana); experiment: Pre-emergence crop plant compatibility (Table E1); settings: dosage 80 g/ha, scored after about 3 weeks, 0% = like control plants
# Source text: as §1, with “crop” for “weed”, “placed” for “laid out”, “pots” for “pots (single sowings with one species of mono- or dicotyledonous weed plant per pot)”, “plants.” for “plants. Tables D1 to D8 below show the effects of selected compounds of the general formula (I) according to Table 1 on various harmful plants and an application rate corresponding to 80 g/ha, which were obtained by the experimental procedure mentioned above.”
# [6] = tested on: Matricaria inodora (MATIN); experiment: Herbicidal post-emergence action (Table B7); settings: rated visually after about 3 weeks, 100% = plants have died, 0% = like control plants
# Summary of the method: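 Visual percent activity relative to untreated controls (100% = plants dead, 0% = like controls) was scored about 3 weeks after treatment. Plants had been sprayed at the one-leaf stage with formulated compound at 1280 or 320 g/ha in 600 L/ha water containing 0.5% additive.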
# [7] = tested on: Digitaria sanguinalis (DIGSA); experiment: Herbicidal pre-emergence action, test D, single sowings (Table D2); settings: 80 g/ha; scored visually after about 3 weeks; 100% = plants have died, 0% = like control plants
# Source text: as §1
# [8] = tested on: Matricaria inodora (MATIN); experiment: Herbicidal pre-emergence action, test C (Table C7); settings: visual scoring after about 3 weeks, 100% = plants have died, 0% = like control plants
# Summary of the method: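 Seeds are covered with sandy loam, and the formulated compound is applied to the soil surface before emergence at 1280 or 320 g/ha. Spray carries 0.5% additive at 600 L/ha. Damage is rated visually as percent versus untreated pots after roughly 3 weeks.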
# [9] = tested on: Amaranthus retroflexus (AMARE); experiment: Herbicidal pre-emergence action, test D, single sowings (Table D5); settings: dosage 80 g/ha, scored after about 3 weeks
# Source text: as §1
# Veronica persica (VERPE) = experiment: Herbicidal pre-emergence action, test D, single sowings (Table D8); settings: dosage 80 g/ha, scored after about 3 weeks
# Source text: as §1
SMILES,Pre-emergence action against viola tricolor (VIOTR) (viola tricolor (VIOTR)),crop plant tolerance in comparison with structurally similar pyrimidinyloxybenzenes (US 2016/333000 Ex. Nos. 53 and 144) [1],Pre-emergence action against Matricaria inodora (MATIN) [2],"Crop plant compatibility in pre-emergence, ZEAMX (damage to corn) [3]","Crop plant compatibility in pre-emergence, TRZAS (damage to wheat) [4]","Crop plant compatibility in pre-emergence, GLXMA (damage to soybean) [5]",Post-emergence action against Matricaria inodora (MATIN) ([6]; 1280 g/ha),Pre-emergence action against Digitaria sanguinalis (DIGSA) [7],Pre-emergence action against Matricaria inodora (MATIN) ([8]; dosage 320 g/ha),Pre-emergence action against Matricaria inodora (MATIN) ([8]; dosage 1280 g/ha),Pre-emergence action against Amaranthus retroflexus (AMARE) [9],Pre-emergence action against Veronica persica (VERPE) (Veronica persica (VERPE)),Post-emergence action against Matricaria inodora (MATIN) ([6]; 320 g/ha)
Fc1cc(Cl)cnc1Oc1cccc(F)c1-c1cc(C(F)F)no1 [Example 1-19],100%,significantly improved crop plant tolerance,100%,10%,30%,20%,100%,100%,100%,100%,100%,100%,–
Fc1cccc(Oc2ccc(Cl)cn2)c1-c1cc(C(F)F)no1 [Example 1-17],100%,significantly improved crop plant tolerance,100%,0%,20%,20%,100%,90%,–,–,100%,100%,100%
